Assay results reported in PubChem BioAssay AID1259411 (Chemical Carcinogenesis Research Information System (CCRIS), 2018).
Active and inactive are the calls of the source. The rule behind the calls is not given here.

Tested on: rodent carcinogenicity bioassays, tumor incidence
Assay: CCRIS carcinogenicity studies
Procedure, shortened: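 NCI-built, expert-reviewed records of carcinogenicity and related test outcomes (mutagenicity, tumor promotion/inhibition) compiled from published and report sources, historical span 1985-2011, not updated.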

For C1CO1, which carcinogen call (Species: MOUSE, Strain/Sex: B6C3F1/FEMALE, Route: INHALATION, Dose: 0, 50, 100 PPM 6 HR/D 5 D/WK FOR 102 WK (STUDY DURATION: 105 WK), Dose: 0, 50, 100 PPM 6 HR/D 5 D/WK FOR 102 WK (STUDY DURATION: 105 WK), Tumor Site: Type of Lesion: LUNG: ALVEOLAR/BRONCHIOLAR ADENOMA, LUNG: ALVEOLAR/BRONCHIOLAR CARCINOMA, LUNG: ALVEOLAR/BRONCHIOLAR ADENOMA OR CARCINOM, Tumor Site: Type of Lesion: LUNG: ALVEOLAR/BRONCHIOLAR ADENOMA, LUNG: ALVEOLAR/BRONCHIOLAR CARCINOMA, LUNG: ALVEOLAR/BRONCHIOLAR ADENOMA OR CARCINOM) is on record?
The carcinogen call was “active; positive”.

What about the carcinogen call (Species: MOUSE, Strain/Sex: B6C3F1/MALE, Route: INHALATION, Dose: 0, 50, 100 PPM 6 HR/D 5 D/WK FOR 102 WK (STUDY DURATION: 105 WK), Dose: 0, 50, 100 PPM 6 HR/D 5 D/WK FOR 102 WK (STUDY DURATION: 105 WK), Tumor Site: Type of Lesion: LUNG: ALVEOLAR/BRONCHIOLAR CARCINOMA, LUNG: ALVEOLAR/BRONCHIOLAR ADENOMA OR CARCINOMA, HARDERIAN GLAND: PAPILLARY CYSTAD, Tumor Site: Type of Lesion: LUNG: ALVEOLAR/BRONCHIOLAR CARCINOMA, LUNG: ALVEOLAR/BRONCHIOLAR ADENOMA OR CARCINOMA, HARDERIAN GLAND: PAPILLARY CYSTAD) of the same compound?
The carcinogen call was “active; positive”.

And the carcinogen call (Species: MOUSE, Strain/Sex: NMRI/FEMALE, Route: SUBCUTANEOUS, Dose: 0, 0.1, 0.3, 1 MG/MOUSE IN TRICAPRYLIN 1/WK FOR 95 WK (STUDY DURATION: 110 WK), Dose: 0, 0.1, 0.3, 1 MG/MOUSE IN TRICAPRYLIN 1/WK FOR 95 WK (STUDY DURATION: 110 WK), Tumor Site: Type of Lesion: INJECTION SITE: TUMOR)?
The carcinogen call was “active; positive”.

And the carcinogen call (Species: RAT, Strain/Sex: F344/FEMALE, Route: INHALATION, Dose: 0, 10, 33, 100 PPM 6 HR/D 5 D/WK FOR STUDY DURATION (STUDY DURATION: 2 YR), Dose: 0, 10, 33, 100 PPM 6 HR/D 5 D/WK FOR STUDY DURATION (STUDY DURATION: 2 YR), Tumor Site: Type of Lesion: BRAIN: ASTROCYTOMA, MIXED GLIOMA, OLIGODENDROGLIOMA, MALIGNANT RETICULOSIS)?
The carcinogen call was “active; positive”.

And the carcinogen call (Species: RAT, Strain/Sex: F344/FEMALE, Route: INHALATION, Dose: 0, 10, 33, 100 PPM 6 HR/D 5 D/WK FOR UP TO 2 YR (STUDY DURATION: 24 MO), Dose: 0, 10, 33, 100 PPM 6 HR/D 5 D/WK FOR UP TO 2 YR (STUDY DURATION: 24 MO))?
The carcinogen call was “inactive; negative”.

And the carcinogen call (Species: RAT, Strain/Sex: F344/MALE, Route: INHALATION, Dose: 0, 10, 33, 100 PPM 6 HR/D 5 D/WK FOR STUDY DURATION (STUDY DURATION: 2 YR), Dose: 0, 10, 33, 100 PPM 6 HR/D 5 D/WK FOR STUDY DURATION (STUDY DURATION: 2 YR), Tumor Site: Type of Lesion: BRAIN: GRANULAR CELL TUMOR, ASTROCYTOMA, MIXED GLIOMA, OLIGODENDROGLIOMA, MALIGNANT RETICULOSIS)?
Its carcinogen call is “active; positive”.

And the carcinogen call (Species: RAT, Strain/Sex: F344/MALE, Route: INHALATION, Dose: 0, 10, 33, 100 PPM 6 HR/D 5 D/WK FOR UP TO 2 YR (STUDY DURATION: 24 MO), Dose: 0, 10, 33, 100 PPM 6 HR/D 5 D/WK FOR UP TO 2 YR (STUDY DURATION: 24 MO), Tumor Site: Type of Lesion: BRAIN: GRANULAR CELL TUMOR OR GLIAL CELL TUMOR OR ASTROCYTOMA OR MALIGNANT RETICULOSIS)?
Its carcinogen call is “active; positive”.

And the carcinogen call (Species: RAT, Strain/Sex: F344/MALE, Route: INHALATION, Dose: 0, 50, 100 PPM 7 HR/D 5 D/WK FOR 24 MO (STUDY DURATION: LIFETIME), Dose: 0, 50, 100 PPM 7 HR/D 5 D/WK FOR 24 MO (STUDY DURATION: LIFETIME), Tumor Site: Type of Lesion: HEMATOPOIETIC SYSTEM: MONONUCLEAR CELL LEUKEMIA, PERITONEUM: MESOTHELIOMA, BRAIN: GLIOMA, Tumor Site: Type of Lesion: HEMATOPOIETIC SYSTEM: MONONUCLEAR CELL LEUKEMIA, PERITONEUM: MESOTHELIOMA, BRAIN: GLIOMA)?
Its carcinogen call is “active; positive”.

What about the carcinogen call (Species: RAT, Strain/Sex: F344/MALE, Route: INHALATION, Dose: 0, 50, 100 PPM 7 HR/D 5 D/WK FOR 104 WK (STUDY DURATION: 2 YR), Dose: 0, 50, 100 PPM 7 HR/D 5 D/WK FOR 104 WK (STUDY DURATION: 2 YR), Tumor Site: Type of Lesion: BRAIN: GLIOMA (MIXED CELL), PERITONEUM: MESOTHELIOMA, PITUITARY GLAND: ADENOMA, SPLEEN: MONONUCLEAR CELL LEUKEMIA, Tumor Site: Type of Lesion: BRAIN: GLIOMA (MIXED CELL), PERITONEUM: MESOTHELIOMA, PITUITARY GLAND: ADENOMA, SPLEEN: MONONUCLEAR CELL LEUKEMIA) of the same compound?
The carcinogen call was “active; positive”.

What about the carcinogen call (Species: RAT, Strain/Sex: SPRAGUE-DAWLEY/FEMALE, Route: GAVAGE, Dose: 7.5, 30 MG/KG IN SALAD OIL 2/WK FOR UP TO 150 WK, Tumor Site: Type of Lesion: FORESTOMACH: SQUAMOUS CELL CARCINOMA) of the same compound?
The carcinogen call was “active; positive”.

For c1ccc2c(c1)CCc1cc3c4c(ccc3cc1-2)CCCC4, which carcinogen call (Species: MOUSE, Strain/Sex: SWISS/FEMALE, Route: DERMAL, Dose: 0, 38 UG AS A 0.2% SOLUTION IN ACETONE APPLIED TO INTERSCAPULAR REGION 2/WK FOR 50 WK (STUDY DURATION: 60 WK), Tumor Site: Type of Lesion: SKIN: CARCINOMA) is on record?
The carcinogen call was “active; positive”.

Which carcinogen call (Species: Mouse, Strain/Sex: SKH-1/Female (18/Group), Route: Dermal, Dose: 0, 2, 4% administered as topical cream (pH 4) , 5 d/wk, 40 wk, animals held an additional 12 wk for study duration of 1, Tumor Site: Type of Lesion: Skin: Carcinoma in situ, squamous cell carcinoma, basal cell carcinoma) does the source give for O=C(O)c1ccccc1O here?
The carcinogen call was “inactive; negative. when synthetic solar light (ssl) at 0.3 and 0.6 the minimal erythema d”.

And the carcinogen call (Species: Mouse, Strain/Sex: SKH-1/Male (18/Group), Route: Dermal, Dose: 0, 2, 4% administered as topical cream (pH 4) , 5 d/wk, 40 wk, animals held an additional 12 wk for study duration of 1, Tumor Site: Type of Lesion: Skin: Carcinoma in situ, squamous cell carcinoma, basal cell carcinoma)?
The carcinogen call was “inactive; negative. when synthetic solar light (ssl) at 0.3 and 0.6 the minimal erythema d”.
